Source: patent US9265773B2, “Tetracyclic heterocycle compounds and methods of use thereof for the treatment of viral diseases” (priority 2011, dated 2016)
pIC50: −log10 of the molar value.

Key:
HCV replicon genotype 1b = assay: microbe, parasite or virus in culture; assay type: cell-based; conditions: genotype 1b replicon cells, incubated 96 hours, NS3/4A ELISA readout
HCV replicon genotype 1a = assay: microbe, parasite or virus in culture; assay type: cell-based; conditions: genotype 1a replicon cells, incubated 96 hours, NS3/4A ELISA readout

SMILES	pIC50 (HCV replicon genotype 1b; Hepatitis C virus, 96 h)	pIC50 (HCV replicon genotype 1a; Hepatitis C virus, 96 h)	pIC50 (HCV replicon genotype 1b)	pIC50 (HCV replicon genotype 1a)
CNC(=O)c1c(-c2ccc(F)cc2)oc2cc(N(C)S(C)(=O)=O)c(-c3ccc4c(n3)-c3cc5c(F)cccc5n3C(C(C)(C)O)O4)cc12 (stereo not drawn) [Compound 101, 5-(11-fluoro-6-(2-hydroxypropan-2-yl)-6H-pyrido[2′,3′,5,6][1,3]oxazino[3,4-a]indol-2-yl)-2-(4-fluorophenyl)-N-methyl-6-(N-methylmethylsulfonamido)benzofuran-3-carboxamide]	8.06	8.24		
CNC(=O)c1c(-c2ccc(F)cc2)oc2cc(N(C)S(C)(=O)=O)c(-c3ccc4c(n3)-c3cc5c(F)cccc5n3[C@H](COC(=O)[C@@H](N)C(C)C)O4)cc12 [Compound 102, (S)—((S)-11-fluoro-2-(2-(4-fluorophenyl)-3-(methylcarbamoyl)-6-(N-methylmethylsulfonamido)benzofuran-5-yl)-6H-pyrido[2′,3′:5,6][1,3]oxazino[3,4-a]indol-6-yl)methyl 2-amino-3-methylbutanoate]	8.37	8.41		
CNC(=O)c1c(-c2ccc(F)cc2)oc2cc(N(C)S(C)(=O)=O)c(-c3ccc4c(n3)-c3cc5c(F)cccc5n3C(COC(=O)[C@@H](NC(=O)OC)C(C)C)O4)cc12 (stereo partly drawn) [Compound 103]	8.16	8.48		
CNC(=O)c1c(-c2ccc(F)cc2)oc2cc(N(C)S(C)(=O)=O)c(-c3ccc4c(n3)-c3cc5c(F)cccc5n3C(COC(=O)[C@@H]3CCCN3C(=O)OC)O4)cc12 (stereo partly drawn) [Compound 104]	8.32	8.62		
CNC(=O)c1c(-c2ccc(F)cc2)oc2cc(N(C)S(C)(=O)=O)c(-c3ccc4c(n3)-c3cc5c(F)cccc5n3C(C(N)=O)O4)cc12 (stereo not drawn) [Compound 105, 11-fluoro-2-(2-(4-fluorophenyl)-3-(methylcarbamoyl)-6-(N-methylmethylsulfonamido)benzofuran-5-yl)-6H-pyrido[2′,3′:5,6][1,3]oxazino[3,4-a]indole-6-carboxamide]			9.05	8.85
CNC(=O)c1c(-c2ccc(F)cc2)oc2cc(N(C)S(C)(=O)=O)c(-c3ccc4c(n3)-c3cc5c(F)cccc5n3C(C(N)=O)O4)cc12 (stereo not drawn) [Compound 106, 11-fluoro-2-(2-(4-fluorophenyl)-3-(methylcarbamoyl)-6-(N-methylmethylsulfonamido)benzofuran-5-yl)-6H-pyrido[2′,3′:5,6][1,3]oxazino[3,4-a]indole-6-carboxamide]			8.62	8.26
CCNC(=O)C1Oc2ccc(-c3cc4c(C(=O)NC)c(-c5ccc(F)cc5)oc4cc3N(C)S(C)(=O)=O)nc2-c2cc3c(F)cccc3n21 (stereo not drawn) [Compound 107]			9.15	8.82
CCNC(=O)C1Oc2ccc(-c3cc4c(C(=O)NC)c(-c5ccc(F)cc5)oc4cc3N(C)S(C)(=O)=O)nc2-c2cc3c(F)cccc3n21 (stereo not drawn) [Compound 108]			8.62	7.85
CNC(=O)c1c(-c2ccc(F)cc2)oc2cc(N(C)S(C)(=O)=O)c(-c3ccc4c(n3)-c3cc5c(F)cccc5n3C(C(=O)NC)O4)cc12 (stereo not drawn) [Compound 109]		8.70	8.68	
CNC(=O)c1c(-c2ccc(F)cc2)oc2cc(N(C)S(C)(=O)=O)c(-c3ccc4c(n3)-c3cc5c(F)cccc5n3C(C(=O)NC)O4)cc12 (stereo not drawn) [Compound 110]			8.32	8.52
CNC(=O)c1c(-c2ccc(F)cc2)oc2cc(N(C)S(C)(=O)=O)c(-c3ccc4c(n3)-c3cc5c(F)cccc5n3C(C(=O)NC(C)C)O4)cc12 (stereo not drawn) [Compound 111]	8.37	8.35		
CNC(=O)c1c(-c2ccc(F)cc2)oc2cc(N(C)S(C)(=O)=O)c(-c3ccc4c(n3)-c3cc5c(F)cccc5n3C(C(=O)O)O4)cc12 (stereo not drawn) [Compound 112]	7.64	7.70		
CCOC(=O)C1Oc2ccc(-c3cc4c(C(=O)NC)c(-c5ccc(F)cc5)oc4cc3N(C)S(C)(=O)=O)nc2-c2cc3c(F)cccc3n21 (stereo not drawn) [Compound 113]	7.54	7.49		
CNC(=O)c1c(-c2ccc(F)cc2)oc2cc(N(C)S(C)(=O)=O)c(-c3ccc4c(n3)-c3cc5c(F)cccc5n3C(CN)O4)cc12 (stereo not drawn) [Compound 114, 5-(6-(aminomethyl)-11-fluoro-6H-pyrido[2′,3′:5,6][1,3]oxazino[3,4-a]indol-2-yl)-2-(4-fluorophenyl)-N-methyl-6-(N-methylmethylsulfonamido)benzofuran-3-carboxamide]	7.74	8.14		
CNC(=O)c1c(-c2ccc(F)cc2)oc2cc(N(C)S(C)(=O)=O)c(-c3ccc4c(n3)-c3cc5c(F)cccc5n3C(CN)O4)cc12 (stereo not drawn) [Compound 115, 5-(6-(aminomethyl)-11-fluoro-6H-pyrido[2′,3′:5,6][1,3]oxazino[3,4-a]indol-2-yl)-2-(4-fluorophenyl)-N-methyl-6-(N-methylmethylsulfonamido)benzofuran-3-carboxamide]			7.72	8.05
CNC(=O)c1c(-c2ccc(F)cc2)oc2cc(N(C)S(C)(=O)=O)c(-c3ccc4c(n3)-c3cc5c(F)cccc5n3C(CNCC(=O)O)O4)cc12 (stereo not drawn) [Compound 116, 2-(((11-fluoro-2-(2-(4-fluorophenyl)-3-(methylcarbamoyl)-6-(N-methylmethylsulfonamido)benzofuran-5-yl)-6H-pyrido[2′,3′:5,6][1,3]oxazino[3,4-a]indol-6-yl)methyl)amino)acetic acid]	8.03	7.28		
CNC(=O)c1c(-c2ccc(F)cc2)oc2cc(N(C)S(C)(=O)=O)c(-c3ccc4c(n3)-c3cc5c(F)cccc5n3C(CNC(C)C(=O)O)O4)cc12 (stereo not drawn) [Compound 117]	8.12	7.13		
CCOC(=O)C(C)NCC1Oc2ccc(-c3cc4c(C(=O)NC)c(-c5ccc(F)cc5)oc4cc3N(C)S(C)(=O)=O)nc2-c2cc3c(F)cccc3n21 (stereo not drawn) [Compound 118]	8.40	7.72		
CCOC(=O)CNCC1Oc2ccc(-c3cc4c(C(=O)NC)c(-c5ccc(F)cc5)oc4cc3N(C)S(C)(=O)=O)nc2-c2cc3c(F)cccc3n21 (stereo not drawn) [Compound 119]	8.29	7.77		
CNC(=O)c1c(-c2ccc(F)cc2)oc2cc(N(C)S(C)(=O)=O)c(-c3ccc4c(n3)-c3cc5c(F)cccc5n3C(CNCCOC)O4)cc12 (stereo not drawn) [Compound 120]	8.68	8.37		
CNC(=O)c1c(-c2ccc(F)cc2)oc2cc(N(C)S(C)(=O)=O)c(-c3ccc4c(n3)-c3cc5c(F)cccc5n3C(CN(C)C)O4)cc12 (stereo not drawn) [Compound 121, 5-(6-((dimethylamino)methyl)-11-fluoro-6H-pyrido[2′,3′:5,6][1,3]oxazino[3,4-a]indol-2-yl)-2-(4-fluorophenyl)-N-methyl-6-(N-methylmethylsulfonamido)benzofuran-3-carboxamide]	8.12	8.52		
CNC(=O)c1c(-c2ccc(F)cc2)oc2cc(N(C)S(C)(=O)=O)c(-c3ccc4c(n3)-c3cc5c(F)cccc5n3C(CN(C)C)O4)cc12 (stereo not drawn) [Compound 122, 5-(6-((dimethylamino)methyl)-11-fluoro-6H-pyrido[2′,3′:5,6][1,3]oxazino[3,4-a]indol-2-yl)-2-(4-fluorophenyl)-N-methyl-6-(N-methylmethylsulfonamido)benzofuran-3-carboxamide]			8.28	8.29
CNC(=O)c1c(-c2ccc(F)cc2)oc2cc(N(C)S(C)(=O)=O)c(-c3ccc4c(n3)-c3cc5c(F)cccc5n3C(CN3CCOCC3)O4)cc12 (stereo not drawn) [Compound 123, 5-(11-fluoro-6-(morpholinomethyl)-6H-pyrido[2′,3′:5,6][1,3]oxazino[3,4-a]indol-2-yl)-2-(4-fluorophenyl)-N-methyl-6-(N-methylmethylsulfonamido)benzofuran-3-carboxamide]	8.44	8.47		
CNC(=O)c1c(-c2ccc(F)cc2)oc2cc(N(C)S(C)(=O)=O)c(-c3ccc4c(n3)-c3cc5c(F)cccc5n3C(CNC(=O)[C@@H]3CCCN3C(=O)OC)O4)cc12 (stereo partly drawn) [Compound 124, (2S)-methyl 2-(((11-fluoro-2-(2-(4-fluorophenyl)-3-(methylcarbamoyl)-6-(N-methylmethylsulfonamido)benzofuran-5-yl)-6H-pyrido[2′,3′:5,6][1,3]oxazino[3,4-a]indol-6-yl)methyl)carbamoyl)pyrrolidine-1-carboxylate]			8.35	7.72
CNC(=O)c1c(-c2ccc(F)cc2)oc2cc(N(C)S(C)(=O)=O)c(-c3ccc4c(n3)-c3cc5c(F)cccc5n3C(CNC(=O)[C@@H](NC(=O)OC)C(C)C)O4)cc12 (stereo partly drawn) [Compound 125]		8.29	8.47	
CNC(=O)c1c(-c2ccc(F)cc2)oc2cc(N(C)S(C)(=O)=O)c(-c3ccc4c(n3)-c3cc5c(F)cccc5n3C(CNC(=O)[C@@H]3CCCN3C(=O)OC)O4)cc12 (stereo partly drawn) [Compound 126]			8.85	8.57
CNC(=O)c1c(-c2ccc(F)cc2)oc2cc(N(C)S(C)(=O)=O)c(-c3ccc4c(n3)-c3cc5c(F)cccc5n3C(CNC(=O)[C@@H](NC(=O)OC)C(C)C)O4)cc12 (stereo partly drawn) [Compound 127]			8.80	8.46
CNC(=O)c1c(-c2ccc(F)cc2)oc2cc(N(C)S(C)(=O)=O)c(-c3ccc4c(n3)-c3cc5c(F)cccc5n3C(CNS(C)(=O)=O)O4)cc12 (stereo not drawn) [Compound 128, 5-(11-fluoro-6-(methylsulfonamidomethyl)-6H-pyrido[2′,3′:5,6][1,3]oxazino[3,4-a]indol-2-yl)-2-(4-fluorophenyl)-N-methyl-6-(N-methylmethylsulfonamido)benzofuran-3-carboxamide]	9.05	8.59		
CNC(=O)c1c(-c2ccc(F)cc2)oc2cc(N(C)S(C)(=O)=O)c(-c3ccc4c(n3)-c3cc5c(F)cccc5n3C(CNC(C)=O)O4)cc12 (stereo not drawn) [Compound 129]			8.68	8.77
CNC(=O)c1c(-c2ccc(F)cc2)oc2cc(N(C)S(C)(=O)=O)c(-c3ccc4c(n3)-c3cc5c(F)cccc5n3C(CNC(C)=O)O4)cc12 (stereo not drawn) [Compound 130]			8.52	8.52
